Measurements published in US10118944B2, “Cell penetrating peptides for intracellular delivery of molecules” (AADIGEN, LLC, priority 2012, dated 2018).

Tests used:
Hela [1] = experiment: VEPEP-5 mediated delivery of small hydrophobic molecules, inhibition of proliferation; format: cell-based; conditions: Homo sapiens, free drug without carrier
Excerpt: (§1) VEPEP-5 peptides (Short-6, Short-7 and Short 11) have been used for the delivery of different small hydrophobic molecules including doxorubicin and porphyrin on different cell lines including primary cell lines and challenging cell lines. VEPEP-5 peptides form stable particles with small aromatic molecules (table 2). Effect of VEPEP-5 mediated delivery of doxorubicin and porphyrin have been investigated on cancer cell viability. […] The impact of carrier peptides to improve cellular uptake of small molecule drugs was estimated by following inhibition of proliferation of cancer cells.

MCF7 [2] = experiment: as above; format: cell-based; conditions: Homo sapiens, free drug without carrier
Excerpt: as §1

Hela [3] = experiment: VEPEP-5 mediated delivery of C4 peptide (targeting cdk2/cyclin A), cell proliferation; format: cell-based, Human; conditions: VEPEP-5 (Short-6, Short-7 and Short 11) mediated delivery
Description: (§2) Adherent HS68 fibroblasts, HeLa, PC3, Jurkat, CEM-SS and U2OS MCF-7 cell lines (from American Type Culture Collection (ATCC)), as well as MEF and PBMC were cultured in Dulbecco's Modified Eagle's Medium supplemented with 2 mM glutamine, 1% antibiotics (streptomycin 10,000 μg/ml, penicillin, 10,000 IU/ml) and 10% (w/v) foetal calf serum (FCS), at 37° C. in a humidified atmosphere containing 5% CO2. Stock solutions of VEPEP-5/peptide particles were prepared by complexing 1 μM peptide with VEPEP-5 peptides at a molar ratio of 1/20 for 30 min at 37° C. Lower concentrations of VEPEP-5-carrier/peptide (from 500 nM to 1 μM) were obtained by serial dilution of the stock complexes in PBS, in order to preserve the same VEPEP-5-carrier/peptide ratio. 150 000 cells seeded in a 35 mm dish the day prior transfection, were grown to 60% confluence and overlaid with 200 μl of preformed complexes, incubated for 3-5 min, then 400 μl of DMEM were added. After 30 min. incubation at 37° C., 1 ml of fresh DMEM containing 16% foetal calf serum (FCS) was added in order to reach a final FCS concentration of 10%, without removing the overlay of VEPEP-5/peptide complexes. Cells were returned to the incubator for 24 hrs. For CDK2 derived peptides cell proliferation was monitored after 24 and 48 hrs. Data reported are an average of 3 or 4 distinct experiments. […]

MCF7 [4] = experiment: as above; format: cell-based, Human; conditions: VEPEP-5 (Short-6, Short-7 and Short 11) mediated delivery
Description: as §2

Cyclin B1 protein level = experiment: VEPEP-5 mediated delivery of PNA antisense, Cyclin B1 knockdown; format: cell-based, Human; conditions: controls: free PNA; scrambled PNA complexed with Short-6 and Short-11
Excerpt: VEPEP-5 (Short-6, Short-7 and Short 11) peptides have been used for the delivery of nucleic acid analog (PNA and morpholino) into different cell lines, including primary cell lines and challenging cell lines. Uptake was monitored by following biological response (Cyclin B1 knockdown). We then have applied Short-6, Short-7 and Short 11 for the delivery of PNA antisense targeting Cyclin B1 as previously described by Morris et al..

[5] = Fluorescence titration, VEPEP-5/SHM binding: doxorubicin; conditions: cargo Doxorubicin
Description: (§3) Fluorescence experiments were performed on a PTI spectrofluorimeter at 25° C. in a NaCl 154 mM buffer. Intrinsic Trp-fluorescence of VEPEP-5 was excited at 290 nm and emission spectrum was recorded between 310 and 400 nm, with a spectral band-pass of 2 and 8 nm for excitation and emission, respectively. FITC-fluorescence of labelled-peptide was excited at 492 nm and emission recorded between 500 and 580 nm. For […]/peptide interaction, 0.5 μM of FITC-labelled peptide was titrated by increasing concentrations of VEPEP-5. All measurements were corrected for the dilution and curve fitting were performed by using Grafit software (Erithacus).
(§4) VEPEP-5 peptides also form stable particles with small aromatic molecules including doxorubicin, porphyrin and charges molecules including nucleotide, nucleoside and peptide-analog of nucleic acids or fluorescent dyes (FIG. 1). The dissociation constant for small hydrophobic molecule ranges between 0.05 to 0.1 μM, depending on the nature of the dyes and of the peptides (Table 2).

[6] = Fluorescence titration, VEPEP-5/SHM binding: porphyrin; conditions: cargo porphyrin
Description: as §3, §4

[7] = Fluorescence titration, VEPEP-5/SHM binding: FAM-guanosine; conditions: cargo FAM-guanosine
Description: as §3, §4

MEF [8] = experiment: VEPEP-5 mediated delivery of fluorescent labelled peptide (microscopy/FACS); format: cell-based, Mouse; conditions: % of the cells
Description: (§5) Adherent HS68 fibroblasts, HeLa, PC3, Jurkat, CEM-SS and U2OS MCF-7 cell lines (from American Type Culture Collection (ATCC)), as well as MEF and PBMC were cultured in Dulbecco's Modified Eagle's Medium supplemented with 2 mM glutamine, 1% antibiotics (streptomycin 10,000 μg/ml, penicillin, 10,000 IU/ml) and 10% (w/v) foetal calf serum (FCS), at 37° C. in a humidified atmosphere containing 5% CO2. Stock solutions of VEPEP-5/peptide particles were prepared by complexing 1 μM peptide with VEPEP-5 peptides at a molar ratio of 1/20 for 30 min at 37° C. Lower concentrations of VEPEP-5-carrier/peptide (from 500 nM to 1 μM) were obtained by serial dilution of the stock complexes in PBS, in order to preserve the same VEPEP-5-carrier/peptide ratio. 150 000 cells seeded in a 35 mm dish the day prior transfection, were grown to 60% confluence and overlaid with 200 μl of preformed complexes, incubated for 3-5 min, then 400 μl of DMEM were added. After 30 min. incubation at 37° C., 1 ml of fresh DMEM containing 16% foetal calf serum (FCS) was added in order to reach a final FCS concentration of 10%, without removing the overlay of VEPEP-5/peptide complexes. Cells were returned to the incubator for 24 hrs. For CDK2 derived peptides cell proliferation was monitored after 24 and 48 hrs. Data reported are an average of 3 or 4 distinct experiments.
(§6) VEPEP-5 peptides (Short-6, Short-7 and Short 11) have been used for the delivery of different peptides into different cell lines, including primary cell lines, stem cell lines and challenging cell lines. Peptide delivery was monitored using three approaches, fluorescence spectroscopy and monitoring biological responses (anti proliferation)
(§7) 1—Fluorescent labelled peptide was visualized in the different cell lines using fluorescence microscopy or FACS sorting (Table 3). In most of the cell lines, the uptake of Cy-5 labelled peptides is more than 70% of the cells

CEM-SS [9] = experiment: as above; format: cell-based, Human; conditions: % of the cells
Description: as §5, §6, §7

HS-68 [10] = experiment: as above; format: cell-based, Human; conditions: HS-68, % of the cells
Description: as §5, §6, §7

Hela [11] = experiment: as above; format: cell-based, Human; conditions: % of the cells
Description: as §5, §6, §7

MCF7 [12] = experiment: as above; format: cell-based, Human; conditions: MCF7, % of the cells
Description: as §5, §6, §7

PBMC = experiment: as above; format: cell-based, Human; conditions: % of the cells
Description: as §5, §6, §7

U2OS [13] = experiment: as above; format: cell-based, Human; conditions: % of the cells
Description: as §5, §6, §7

MEF [14] = experiment: VEPEP-5 mediated delivery of proteins (fluorescence/FACS); format: cell-based, Mouse; conditions: % of the cells
Description: as §5
(§8) VEPEP-5 have been used for the delivery of different proteins into different cell lines, including primary cell lines, stem cell lines and challenging cell lines. Protein uptake was monitored using fluorescence spectroscopy and FACS analysis. GFP/RFP or Fluorescent labelled proteins were visualized in the different cell lines using fluorescence microscopy or FACS sorting (Table 5). In most of the cell lines, the uptake of RFP; GFP, Cy-5 labelled proteins is more than 50% of the cells.

CEM-SS [15] = experiment: as above; format: cell-based, Human; conditions: % of the cells
Description: as §5, §8

HS-68 [16] = experiment: as above; format: cell-based, Human; conditions: HS-68, % of the cells
Description: as §5, §8

Hela [17] = experiment: as above; format: cell-based, Human; conditions: % of the cells
Description: as §5, §8

Jurkat = experiment: as above; format: cell-based, Human; conditions: % of the cells
Description: as §5, §8

MCF7 [18] = experiment: as above; format: cell-based, Human; conditions: MCF7, % of the cells
Description: as §5, §8

U2OS [19] = experiment: as above; format: cell-based, Human; conditions: % of the cells
Description: as §5, §8

HeLa and U2OS cells = experiment: Toxicity of VEPEP-5 particles by MTT assay; format: cell-based, Human
Description: Cytotoxic response was measured 24 hr later by colorimetric MTT assay (Sigma, Germany), respectively. […] Results correspond to the average of 3 separate experiments.

| Binding, Doxorubicin [5] | Binding, porphyrin [6] | Kd [6] [nM] | Binding, FAM-guanosine [7] | Molecule | Efficiency (uptake of fluorescent labelled peptide) (MEF [8]) [%] | Efficiency (uptake of fluorescent labelled peptide) (CEM-SS [9]) [%] | Efficiency (uptake of fluorescent labelled peptide) (HS-68 [10]) [%] | Efficiency (uptake of fluorescent labelled peptide) (Hela [11]) [%] | Efficiency (uptake of fluorescent labelled peptide) (MCF7 [12]) [%] | Efficiency (uptake of fluorescent labelled peptide) (PBMC) [%] | Efficiency (uptake of fluorescent labelled peptide) (U2OS [13]) [%] | uptake of RFP; GFP, Cy-5 labelled proteins (MEF [14]) [%] | uptake of RFP; GFP, Cy-5 labelled proteins (CEM-SS [15]) [%] | uptake of RFP; GFP, Cy-5 labelled proteins (HS-68 [16]) [%] | uptake of RFP; GFP, Cy-5 labelled proteins (Hela [17]) [%] | uptake of RFP; GFP, Cy-5 labelled proteins (Jurkat) [%] | uptake of RFP; GFP, Cy-5 labelled proteins (MCF7 [18]) [%] | uptake of RFP; GFP, Cy-5 labelled proteins (U2OS [19]) [%] | toxicity (MTT) (HeLa and U2OS cells; levels up to 200 nM) | toxicity (MTT) (HeLa and U2OS cells; maximum concentration of 1 μM) | other results |
| --- | --- | --- | --- | --- | --- | --- | --- | --- | --- | --- | --- | --- | --- | --- | --- | --- | --- | --- | --- | --- | --- |
| – | – | – | – | C1=Cc2cc3ccc(cc4nc(cc5ccc(cc1n2)[nH]5)C=C4)[nH]3 [Porphyrin, porphyrin] | – | – | – | – | – | – | – | – | – | – | – | – | – | – | – | – | IC50 (Hela [1]): 25000 nM; IC50 (MCF7 [2]): 17000 nM |
| – | – | – | – | KKQVRMAHLVLT (synthesized peptide C4) [Short C4] | – | – | – | – | – | – | – | – | – | – | – | – | – | – | – | – | peptide C4 concentration sufficient to block proliferation (Hela [3]): 100 nM; peptide C4 concentration sufficient to block proliferation (MCF7 [4]): 100 nM |
| – | – | – | – | TGC CAT CAA GCT TAG AGG-^CY5 (antisense TGCCATCAAGCTTAGAGG; all peptide nucleic acid (PNA); further chemistry not fully specified) [free PNA, PNA antisense targeting Cyclin B1, without carrier] | – | – | – | – | – | – | – | – | – | – | – | – | – | – | – | – | change in Cyclin B1 level (Cyclin B1 protein level): no change |
| yes | yes | 700 | yes | X1RSWFRLWFR [Short 11, X1 is beta-A or S; N-terminus acetylated, C-terminal cysteamide] | 70 | 70 | 80 | 69 | 58 | 78 | 55 | 60 | 65 | 70 | 60 | 78 | 62 | 71 | No toxicity | mild toxicity | – |
| yes | yes | 500 | yes | X1WFRLWFRLR [Short 7, X1 is beta-A or S; N-terminus acetylated, C-terminal cysteamide] | 71 | 75 | 78 | 70 | 75 | 80 | 71 | 65 | 60 | 80 | 80 | 70 | 75 | 80 | No toxicity | mild toxicity | Kd [5]: 70 nM |
| yes | yes | 400 | yes | X1WWRLWWRLR [Short 6, X1 is beta-A or S; N-terminus acetylated, C-terminal cysteamide] | 64 | 74 | 89 | 45 | 59 | 78 | 68 | 65 | 55 | 78 | 55 | 60 | 70 | 64 | No toxicity | mild toxicity | Kd [7]: 60 nM |
